Measured values as given in patent US7084158B2, “Substituted propargylamines” (Bayer Cropscience S.A., priority 2001, dated 2006).

Legend:
Assay type in all cases: in vivo
Parameters in all cases: key: compounds were considered to be active when, at a concentration of 500 ppm or less, they had an activity on the harmful organisms of 50% or more
[1] = tested on: Diabrotica undecimpunctata; test: Example C: corn rootworm eggs with maize corn, mortality; settings: 500 ppm or less; 4-5-day-old eggs; after 6 days
Aphis fabae = test: Example F: field bean dip, black bean aphid mortality; settings: 500 ppm or less; plants and aphids dipped; after 3 and 6 days
Description: Germinated field bean seeds (Vicia faba) with radicles were transferred into brown glass bottles filled with tap water and subsequently populated with approximately 100 black bean aphids (Aphis fabae). Plants and aphids were then dipped for 5 seconds into an aqueous solution of the formulated compound to be examined. After the solution had run off, plants and animals were stored in a climatized chamber (16 hours of light/day, 25° C., 40–60% relative atmospheric humidity). After 3 and 6 days of storage, the effect of the compound on the aphids was determined (mortality). The compounds of the following examples were active: 30, 43, 228, 262, 291.

Nilaparvata lugens = test: Example A: rice leaf dip, leafhopper larvae mortality; settings: 500 ppm or less; L3 larvae on dipped rice plants; after 6 days
Description: The leaves of 12 rice plants having a stem length of 8 cm were dipped for 5 seconds into an aqueous solution of the formulated compound to be examined. After the solution had run off, the rice plants treated in this manner were placed into a Petri dish and populated with about 20 larvae (L3 stage) of the rice leafhopper species Nilaparvata lugens. The Petri dish was closed and then stored in a climatized chamber (16 hours of light/day, 25° C., 40–60% relative atmospheric humidity). After 6 days of storage, the mortality among the leafhopper larvae was determined. The compounds of the following examples were active: Nos. 29, 32, 42, 43, 51, 70, 84, 1002, 1004, 1005, 1040, 180, 184, 193, 197, 203, 209, 1059, 264, 265, 1066.

Heliothis virescens [2] = test: Example B: tobacco budworm eggs on filter paper/insect diet, mortality; settings: 500 ppm or less; 24-hour-old eggs dipped, diet treated; after 6 days
[3] = tested on: Diabrotica undecimpunctata; test: Example AC: treated soil, southern corn rootworm eggs mortality; settings: 500 ppm or less, eggs added after 0d, 21d and 42d, after 2 weeks
Description: An aqueous solution of the formulated compound to be examined was mixed with soil. After 0d, 21d and 42d, eggs of the southern corn rootworm (Diabrotica undecimpunctata) were placed together with 2 pre-swollen maize corns into a dish, covered with the treated soil and moisted with 10 ml of water. Soil and eggs were placed in a greenhouse (23° C., 60% relative atmosphere humidity). After 2 weeks of storage, the effect of the compound on the eggs and any larvae hatched therefrom was determined (mortality). The following examples were active: 70, 60, 197, 204.

Spodoptera littoralis [4] = test: Example G: treated L2 larvae and insect diet, Egyptian cotton leafworm mortality; settings: 500 ppm or less, after 6 days
Description: A Petri dish whose bottom was covered with filter paper and which contained about 5 ml of insect diet is prepared. Five L2 larvae of the Egyptian cotton leafworm (Spodoptera littoralis) were counted into a small beaker. 200 μl of an aqueous solution of the formulated preparation to be examined were pipetted into the beaker. The treated larvae were then poured into the Petri dish, and a further 200 μl of the aqueous solution were distributed over the insect diet. The Petri dish was closed and then stored at about 25° C. in a climatized chamber. After 6 days of storage, the effect of the compound on the larvae was determined (mortality). The compounds of the following examples were active: 29, 70, 60, 159, 1005, 1040, 1042, 1044, 1045, 1046, 1047.

Meloidogyne incognita = test: Example H: root gall nematode larvae immobilization (contact activity); settings: 500 ppm or less; 2nd stage larvae; 6 days permanent exposure
Description: In a glass vessel, an aqueous solution of the formulated compound to be examined was added to about 3000 freshly hatched active (mobile) larvae (2nd development stage) of the root gall nematode (Meloidogyne incognita) (final volume 20 ml). After 6 days of permanent exposure of the nematode larvae, the percentage of the individual larvae immobilized by the activity of the compound was determined in comparison to the untreated controls (contact activity). The compounds of the following examples were active: 39, 52, 159, 161, 162, 163, 164, 165, 1045, 1046, 1047, 179, 183, 187, 1048, 298, 206, 208, 227, 230, 1061, 237, 238, 245, 250, 255, 256, 260, 268, 269, 274, 275, 288, 290.

[5] = tested on: Leptinotarsa decemlineata; test: Example L: potato leaves and larvae sprayed, Colorado beetle mortality; settings: 500 ppm or less, after 4 days
Description: Potato leaves were populated with larvae of the Colorado beetle (Leptinotarsa decemlineata). Leaves and larvae were then sprayed with an aqueous solution of the formulated compound to be examined. After 4 days of storage at about 25° C., the effect of the compound on the larvae was determined (mortality). The compounds of the following examples were active: 60, 70, 1002, 1004, 1005, 1036, 1047, 197.

Spodoptera exigua [6] = test: Example Y: cotton plants sprayed, cut leaves, sugar beet armyworm mortality; settings: 500 ppm or less, leaves cut after drying, L2 larvae, after 4 days
Description: Cotton plants were sprayed with an aqueous solution of the formulated compound to be examined. After drying, leaves were cut off, placed into a Petri dish and populated with 5 L2 larvae of the sugar beet armyworm (Spodoptera exigua). After 4 days of storage at about 23° C., the mortality among the larvae was determined. The following examples were active: 1036, 70, 60, 1047, 197.

Spodoptera exigua [7] = test: Example Z: cotton leaves with larvae sprayed, sugar beet armyworm mortality; settings: 500 ppm or less; cotton leaves populated then sprayed; L2 larvae; after 4 days
Description: Cotton leaves were populated with 5 L2 larvae of the sugar beet armyworm (Spodoptera exigua) and then sprayed with an aqueous solution of the formulated compound to be examined. After 4 days of storage at about 23° C., the mortality among the larvae was determined. The following examples were active: 1036, 70, 60, 1047, 197.

Heliothis virescens [8] = test: Example AB: cotton leaves with larvae sprayed, tobacco budworm mortality; settings: 500 ppm or less; cotton leaves with L2 larvae sprayed; after 4 days
Description: Cotton leaves were placed into a Petri dish, populated with 5 L2 larvae of the American tobacco budworm (Heliothis virescens) and sprayed with an aqueous solution of the formulated compound to be examined. After 4 days of storage at about 25° C., the mortality among the larvae was determined. The following examples were active: 70, 1047, 197.

[9] = tested on: Trialeurodes vaporariorum; test: Example AD: bush beans sprayed, white fly larvicidal action; settings: 500 ppm or less; bush beans sprayed after hatching; after 11 days
Description: For oviposition, bush beans (Phaseolus vulgaris) were populated for 48 hours with adults of the white fly (Trialeurodes vaporariorum). After the larvae had hatched, the plants were sprayed to run-off point with an aqueous solution of the formulated compound to be examined. After 11 days, the larvicidal action was determined. The following examples were active: 1036, 70, 60, 1040, 197.

Carpocapsa pomonella = test: Example D: dipped apples, codling moth L1 larvae mortality; settings: 500 ppm or less, after 14 days
Description: Apples were dipped into an aqueous solution of the formulated compound to be examined. The apples were then populated with 10 L1 larvae of the codling moth (Carpocapsa pomonella). After 14 days of storage at about 25° C., the effect of the compound on the larvae was determined (mortality). The compounds of the following examples were active: Nos. 14, 15, 17, 18, 70, 1007, 1008, 1009, 1036, 1038, 197.

Spodoptera littoralis [10] = test: Example E: cotton leaves sprayed, Egyptian cotton leafworm L2 larvae mortality; settings: 500 ppm or less, after 4 days
Description: Leaves of cotton plants were placed into a Petri dish, populated with 10 L2 larvae of the Egyptian cotton leafworm (Spodoptera littoralis) and sprayed with an aqueous solution of the formulated compound to be examined. After 4 days of storage at about 23° C., the effect of the compound on the larvae was determined (mortality). The compounds of the following examples were active: Nos. 18, 70, 1007, 1008, 1009, 1036 und 1038.

Spodoptera exigua [11] = test: Example S: treated L2 larvae and insect diet, sugar beet army worm mortality; settings: 500 ppm or less, after 6 days
Description: A Petri dish whose bottom was covered with filter paper and which contains about 5 ml of insect diet is prepared. Five L2 larvae of sugar beet army worm (Spodoptera exigua) were counted into a small beaker. 200 μl of an aqueous solution of the formulated compound to be examined were pipetted into the beaker. The treated larvae were then poured into the Petri dish and a further 200 μl of the aqueous solution were distributed over the insect diet. The Petri dish was closed and then stored at 25° C. in a climatized chamber. After 6 days of storage, the mortality among the larvae was determined. The following examples were active: 1036, 175, 184, 1051, 1054, 1055, 234, 1057, 1059, 1060, 1063, 243, 245, 251, 257, 259, 266, 1065, 1067, 290, 291.

Aedes aegypti = test: Example AG: microtiter plate, yellow fever mosquito larvicidal activity; settings: 500 ppm or less, after 3 days

CC1CCN(CC#Cc2ccc(-c3ccc(F)cc3)c(F)c2)CC1 [Example 228]
active: effect on the eggs and hatched larvae (mortality) [1] | effect on the aphids (mortality) (Aphis fabae)

C[C@@H]1C[C@H](C)CN(CC#Cc2cc(C(F)(F)F)cc(C(F)(F)F)c2)C1 [Example 43]
active: mortality among the leafhopper larvae (Nilaparvata lugens) | effect on the eggs and hatched larvae (mortality) [1] | effect on the aphids (mortality) (Aphis fabae)

FC(F)(F)c1cc(C#CCN2CCC(C(F)(F)F)CC2)nc(C(F)(F)F)c1 [Example 204]
active: effect on the eggs and hatched larvae (mortality) (Heliothis virescens [2]) | effect on the eggs and hatched larvae (mortality) [1] | effect on the eggs and hatched larvae (mortality) [3]

CC1CCN(CC#Cc2cc(C(F)(F)F)cc(C(F)(F)F)n2)CC1.Cl [Example 1047]
active: effect on the eggs and hatched larvae (mortality) (Heliothis virescens [2]) | effect on the eggs and hatched larvae (mortality) [1] | effect on the larvae (mortality) (Spodoptera littoralis [4]) | percentage of larvae immobilized (contact activity) (Meloidogyne incognita) | effect on the larvae (mortality) [5] | mortality among the larvae (Spodoptera exigua [6]) | mortality among the larvae (Spodoptera exigua [7]) | mortality among the larvae (Heliothis virescens [8])

CC1CCN(CC#Cc2ccc(C(F)(F)F)c(Cl)c2)CC1.CCCCCCCCC(=O)O [Example 1040]
active: mortality among the leafhopper larvae (Nilaparvata lugens) | effect on the eggs and hatched larvae (mortality) (Heliothis virescens [2]) | effect on the eggs and hatched larvae (mortality) [1] | effect on the larvae (mortality) (Spodoptera littoralis [4]) | larvicidal action [9]

CCC1CCCN(CC#Cc2ccc(Cl)c(C(F)(F)F)c2)C1 (centres unmarked) [Example 18]
active: effect on the eggs and hatched larvae (mortality) (Heliothis virescens [2]) | effect on the eggs and hatched larvae (mortality) [1] | effect on the larvae (mortality) (Carpocapsa pomonella) | effect on the larvae (mortality) (Spodoptera littoralis [10])

CC1CCN(CC#Cc2ccc(C(F)(F)F)c(Cl)c2)CC1.O=C(O)/C=C/C(=O)O [Example 1008]
active: effect on the larvae (mortality) (Carpocapsa pomonella) | effect on the larvae (mortality) (Spodoptera littoralis [10])

CC1CCN(CC#Cc2cc([N+](=O)[O-])cc(C(F)(F)F)c2)CC1.Cl [Example 1038]
active: effect on the eggs and hatched larvae (mortality) (Heliothis virescens [2]) | effect on the eggs and hatched larvae (mortality) [1] | effect on the larvae (mortality) (Carpocapsa pomonella) | effect on the larvae (mortality) (Spodoptera littoralis [10])

CC1CCN(CC#Cc2cc(C(F)(F)F)ccc2Cl)CC1 [Example 30]
active: effect on the eggs and hatched larvae (mortality) (Heliothis virescens [2]) | effect on the aphids (mortality) (Aphis fabae)

CC1CCN(CC#Cc2ccc(C#N)c(C(F)(F)F)c2)CC1 [Example 290]
active: effect on the eggs and hatched larvae (mortality) (Heliothis virescens [2]) | effect on the eggs and hatched larvae (mortality) [1] | percentage of larvae immobilized (contact activity) (Meloidogyne incognita) | mortality among the larvae (Spodoptera exigua [11]) | larvicidal activity (Aedes aegypti)
